Results: paper PMC6792352, “Limited Chemical Structural Diversity Found to Modulate Thyroid Hormone Receptor in the Tox21 Chemical Library” (Environmental Health Perspectives, 2019)
Structures can show the parent of a compound that is named as a salt. Where two headings read alike, the source gives them in different places.

Columns and labels:
in vitro = conditions: rat, gh3-tre-luc cells, AC50 (uM) modified / 1000
[1] = system: thyroid hormone receptor (endogenous TRα and TRβ); assay: GH3-TRE-Ag primary qHTS, luciferase reporter, agonist mode (TOX21_TR_LUC_GH3_Agonist, aeid 803); type: cell-based, rat
GH3-TRE-Luc cell line = conditions: read-out: AC50 (uM) modified / 1000, viability, 1 nM T3 present, 24 h
[2] = aeid 803 TOX21_TR_LUC_GH3_Agonist, tcpl output

## NC(CO)(CO)CO [tromethamine]
In vitro
  CC50 at 24 h: > 90 µM
[1]
  activity in GH3-TRE agonist assay: completely inactive

## N[C@@H](Cc1cc(I)c(O)c(I)c1)C(=O)O [3,5-diiodo-L-tyrosine]
In vitro
  CC50 at 24 h: > 50 µM
[1]
  activity in GH3-TRE agonist assay: completely inactive
  max_mean: 0.9106 percent_activity
[1]; aeid 803, at max_med_conc (log) -0.39794, coff 20
  max_med: 0.5533 percent_activity
[1]; aeid 803 TOX21_TR_LUC_GH3_Agonist, modl cnst
  hitc: 0
[1]; [2]
  resp_max: 3.287 percent_activity
  resp_min: -1.703 percent_activity

## Nc1ccc(O)c(N)c1 [2,4-Diaminophenol dihydrochloride]
In vitro
  CC50 at 24 h: 41.5 µM
GH3-TRE-Luc cell line; Tox21_110001=Tox21_303017
  CC50: 45.5 µM

## C=CCOC(Cn1ccnc1)c1ccc(Cl)cc1Cl (centres unmarked) [Imazalil]
In vitro
  CC50 at 24 h: 53.5 µM
GH3-TRE-Luc cell line; Tox21_110001=Tox21_300720
  CC50: 79.9 µM

## CC1COc2ccccc2N1C(=O)C(Cl)Cl (centres unmarked) [Benoxacor]
In vitro
  CC50 at 24 h: 11.9 µM
GH3-TRE-Luc cell line; Tox21_110001=Tox21_303359
  CC50: 22.1 µM

## CCc1cc(Cl)c(OC)c(C(=O)NC[C@@H]2CCCN2CC)c1O [Eticlopride hydrochloride]
In vitro
  CC50 at 24 h: 19.6 µM
GH3-TRE-Luc cell line; Tox21_110001=Tox21_111229
  CC50: 25.3 µM
GH3-TRE-Luc cell line; Tox21_110001=Tox21_113585
  CC50: 33.6 µM

## Oc1ccccc1O [Catechol]
In vitro
  CC50 at 24 h: 33.7 µM
GH3-TRE-Luc cell line; Tox21_110001=Tox21_300153
  CC50: 32.6 µM

## Oc1ccc(C(c2ccc(O)cc2)(C(F)(F)F)C(F)(F)F)cc1 [Bisphenol AF]
In vitro
  CC50 at 24 h: 32.9 µM
GH3-TRE-Luc cell line; Tox21_110001=Tox21_303641
  CC50: 54.4 µM

## CCCCN(CC)c1c([N+](=O)[O-])cc(C(F)(F)F)cc1[N+](=O)[O-] [Benfluralin]
In vitro
  CC50 at 24 h: > 90 µM
GH3-TRE-Luc cell line; Tox21_110001=Tox21_300774
  CC50: 46 µM

## COC1=CC(=O)C[C@@H](C)[C@]12Oc1c(Cl)c(OC)cc(OC)c1C2=O [Griseofulvin]
In vitro
  CC50 at 24 h: > 90 µM
GH3-TRE-Luc cell line; Tox21_110001=Tox21_303005
  CC50: 49.1 µM

## Oc1c(Cl)cc(Cl)c(Cl)c1Cc1c(O)c(Cl)cc(Cl)c1Cl [Hexachlorophene]
In vitro
  CC50 at 24 h: 17.1 µM
GH3-TRE-Luc cell line; Tox21_110001=Tox21_111099
  CC50: 14.8 µM
GH3-TRE-Luc cell line; Tox21_110001=Tox21_302741
  CC50: 22.4 µM

## CC(C)(c1ccc(OCC2CO2)cc1)c1ccc(OCC2CO2)cc1 (centres unmarked) [Bisphenol A diglycidyl ether]
In vitro
  CC50 at 24 h: 66.1 µM
GH3-TRE-Luc cell line; Tox21_110001=Tox21_303315
  CC50: 61.9 µM

## O=C1CN(/N=C/c2ccc([N+](=O)[O-])o2)C(=O)N1 [Nitrofurantoin]
In vitro
  CC50 at 24 h: 62.5 µM
GH3-TRE-Luc cell line; Tox21_110001=Tox21_300602
  CC50: 70.6 µM

## Clc1ccc(C(c2ccccc2Cl)C(Cl)Cl)cc1 (centres unmarked) [o,p'-DDD]
In vitro
  CC50 at 24 h: 56.7 µM
GH3-TRE-Luc cell line; Tox21_110001=Tox21_110103
  CC50: 41.9 µM

## O=C([O-])[C@H](O)[C@@H](O)[C@H](O)[C@H](O)CO.O=C([O-])[C@H](O)[C@@H](O)[C@H](O)[C@H](O)CO.[Ba+2] [D-Gluconic acid, barium salt]
[1]; Table S2, aeid 803, per sample
  resp_max (maximum response value): 3.109 percent_activity
[1]; Table S2, aeid 803, tcpl hit call
  hitc: 0
[1]; Table S2, aeid 803, final hitc after manual review
  hitc_modified: 0
[1]; Table S2, aeid 803, inactive set to 1000, read-out: AC50 (uM) modified
  AC50: > 50 µM

## C1CN(SSN2CCOCC2)CCO1 [4,4'-Dithiodimorpholine]
In vitro
  CC50 at 24 h: 69.4 µM
GH3-TRE-Luc cell line; Tox21_110001=Tox21_303110
  CC50: 49.5 µM

## CC1=C(/C=C/C(C)=C/C=C/C(C)=C/C(=O)Nc2ccc(O)cc2)C(C)(C)CCC1 [4-Hydroxyphenyl retinamide]
In vitro
  CC50 at 24 h: 10 µM
GH3-TRE-Luc cell line; Tox21_110001=Tox21_111007
  CC50: 6.39 µM

## CCCCC(CC)COC(=O)c1ccc(O)cc1 (centres unmarked) [2-Ethylhexylparaben]
In vitro
  CC50 at 24 h: 32.1 µM
GH3-TRE-Luc cell line; Tox21_110001=Tox21_302793
  CC50: 41.7 µM

## CC(C)(C)c1cc(C(C)(C)C)c(O)c(C(C)(C)C)c1 [2,4,6-Tris(tert-butyl)phenol]
In vitro
  CC50 at 24 h: 27.4 µM
GH3-TRE-Luc cell line; Tox21_110001=Tox21_300121
  CC50: 28.2 µM

## CC(C)(C)CC(C)(C)c1ccc(O)cc1 [4-(1,1,3,3-Tetramethylbutyl)phenol]
In vitro
  CC50 at 24 h: 35.1 µM
GH3-TRE-Luc cell line; Tox21_110001=Tox21_112084
  CC50: 22.4 µM

## Nc1ccc(O)cc1 [4-Aminophenol]
In vitro
  CC50 at 24 h: 16.6 µM
GH3-TRE-Luc cell line; Tox21_110001=Tox21_113242
  CC50: 9.32 µM
GH3-TRE-Luc cell line; Tox21_110001=Tox21_201030
  CC50: 17.1 µM

## CC1(C)[C@@H](O)CC[C@]2(C)[C@H]3C(=O)C=C4[C@@H]5C[C@@](C)(C(=O)O)CC[C@]5(C)CC[C@@]4(C)[C@]3(C)CC[C@@H]12 [Glycyrrhetinic acid]
In vitro
  CC50 at 24 h: 28 µM
GH3-TRE-Luc cell line; Tox21_110001=Tox21_110804
  CC50: 24.8 µM
GH3-TRE-Luc cell line; Tox21_110001=Tox21_112726
  CC50: 19.8 µM

## CC(C)CC(C)(c1ccc(O)cc1)c1ccc(O)cc1 [4,4'-(4-Methylpentane-2,2-diyl)diphenol]
In vitro
  CC50 at 24 h: 41.6 µM
GH3-TRE-Luc cell line; Tox21_110001=Tox21_303608
  CC50: 34 µM

## O=c1c(O)c(-c2ccc(O)cc2)oc2cc(O)cc(O)c12 [Kaempferol]
In vitro
  CC50 at 24 h: 66.6 µM
GH3-TRE-Luc cell line; Tox21_110001=Tox21_303363
  CC50: 50 µM

## CC(C)(C)C(=O)C1C(=O)c2ccccc2C1=O [Pindone]
In vitro
  CC50 at 24 h: 60.9 µM
GH3-TRE-Luc cell line; Tox21_110001=Tox21_303317
  CC50: 71.8 µM

## C=C1CC[C@H](O)C/C1=C/C=C1\CCC[C@]2(C)[C@@H]([C@H](C)CCCC(C)C)CC[C@@H]12 [Vitamin D3]
In vitro
  CC50 at 24 h: 44.3 µM
GH3-TRE-Luc cell line; Tox21_110001=Tox21_111578
  CC50: 24.3 µM

## Oc1ccc(Cl)cc1Sc1cc(Cl)ccc1O [Fenticlor]
In vitro
  CC50 at 24 h: 8.49 µM
GH3-TRE-Luc cell line; Tox21_110001=Tox21_110031
  CC50: 11.6 µM

## CC/C(=C(/CC)c1ccc(O)cc1)c1ccc(O)cc1 [Diethylstilbestrol]
In vitro
  CC50 at 24 h: 55.5 µM
GH3-TRE-Luc cell line; Tox21_110001=Tox21_300526
  CC50: 28.7 µM

## CC(C)N(C(=O)CCl)c1ccccc1 [Propachlor]
In vitro
  CC50 at 24 h: 48.7 µM
GH3-TRE-Luc cell line; Tox21_110001=Tox21_303036
  CC50: 54.1 µM

## O=Nc1ccc(Nc2ccccc2)cc1 [4-Nitrosodiphenylamine]
In vitro
  CC50 at 24 h: 8.75 µM
GH3-TRE-Luc cell line; Tox21_110001=Tox21_302822
  CC50: 14.9 µM

## ClC(Cl)=C(c1ccc(Cl)cc1)c1ccc(Cl)cc1 [p,p'-DDE]
In vitro
  CC50 at 24 h: 48.6 µM
GH3-TRE-Luc cell line; Tox21_110001=Tox21_300109
  CC50: 63.5 µM

## CC(C)C[C@H](NC(=O)[C@H](Cc1ccccc1)NC(=O)c1cnccn1)B(O)O [Bortezomib]
In vitro
  CC50 at 24 h: 0.0167 µM
GH3-TRE-Luc cell line; Tox21_110001=Tox21_112672
  CC50: 0.00954 µM

## Oc1c(Cl)cc(Cl)c(Cl)c1Cl [2,3,4,6-Tetrachlorophenol]
In vitro
  CC50 at 24 h: 71.8 µM
GH3-TRE-Luc cell line; Tox21_110001=Tox21_302932
  CC50: 64.3 µM

## CC(=O)[C@]1(O)Cc2c(O)c3c(c(O)c2[C@@H](O[C@H]2C[C@H](N)[C@H](O)[C@H](C)O2)C1)C(=O)c1c(O)cccc1C3=O [Carminomycin]
In vitro
  CC50 at 24 h: 0.177 µM
GH3-TRE-Luc cell line; Tox21_110001=Tox21_111978
  CC50: 0.212 µM

## CCC(C)(C)c1ccc(O)c(C(C)(C)CC)c1 [2,4-Di-tert-pentylphenol]
In vitro
  CC50 at 24 h: 10.5 µM
GH3-TRE-Luc cell line; Tox21_110001=Tox21_300090
  CC50: 12.2 µM

## CCCCCCCC[N+](C)(C)CCCCCCCC [Dioctyldimethylammonium chloride]
In vitro
  CC50 at 24 h: 19.4 µM
GH3-TRE-Luc cell line; Tox21_110001=Tox21_113024
  CC50: 20.1 µM
